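Briefly, cells in 96-well plates were exposed to five compound concentrations for 48 h, and endpoints were estimated by linear interpolation. GI50: concentration for 50% inhibition of growth. The concentration for full growth arrest is given as TGI.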
System: MDA-MB-468 breast
Experiment: NCI tumour cell line growth inhibition, 48 h

SMILES | GI50 | TGI
CN1CCN(c2ccc(C(=O)Nc3cc(-c4cccc(NS(=O)(=O)c5ccccc5)c4)[nH]n3)cc2)CC1 | 4840 nM | 14000 nM
COc1ccc(-c2csc(NC(=O)c3cc(O)c(O)c(O)c3)n2)cc1 | 6940 nM | 29500 nM
CN(C)CCCn1c2nc(=O)[nH]c(=O)c-2nc2cc(Cl)c(Cl)cc21 | 772 nM | 2130 nM
Clc1ccc(Nc2ccnc(NCCCNc3ccnc4cc(Cl)ccc34)n2)cc1 | 1490 nM | 3050 nM
CNCCCNCCCN1C(=O)c2ccc3c4c(ccc(c24)C1=O)C(=O)N(CCCNCc1ccccc1OC)C3=O | 1000 nM | 2770 nM
C#C[C@]1(O)CC[C@H]2[C@@H]3CC=C4c5sc(N6CCN(C)CC6)nc5CC[C@]4(C)[C@H]3CC[C@@]21C | 2260 nM | 7600 nM
Cn1c(=O)c(Oc2ccccc2)cc2cnc(NC3CCOCC3)nc21 | > 25000 nM | > 25000 nM
CCCN(CCSSCCNc1nc(N(C)O)nc(N(C)O)n1)c1nc(N(C)O)nc(N(C)O)n1 | 2150 nM | 8860 nM
CCNCCCn1c2c(c3ccc([N+](=O)[O-])cc3c1=O)C(=O)c1cc(OC)cnc1-2 | 41.6 nM | 210 nM
NC(=O)c1ccc2nc3c(n2c1)C(=O)C(=O)c1ccccc1-3 | 587 nM | 1920 nM
C=C1C[C@@]2(C)C(CC[C@]3(C)C2CC=C2C4CC(C)(C)C[C@@H](OC(=O)/C(C)=C\C)[C@]4(C(=O)O)CC[C@]23C)C(C)(C)C1=O (some centres undefined) | 2020 nM | 5910 nM
CCSc1nnc(-c2ccc3ccccc3c2O)n1-c1ccc(Cl)cc1 | 3590 nM | > 100000 nM
O=C(Nc1ccccc1)Nc1cccc(Oc2nnc(Cl)c3ccccc23)c1 | 1680 nM | 7580 nM
Nc1ccccc1NC(=O)c1ccc(NC(=O)C/C=C/c2cccnc2)cn1 | 982 nM | 13300 nM
N#C/C(=C\c1ccc(Br)cc1)n1nnc2ccccc21 | 566 nM | 2220 nM
Cc1ccc(Sc2sc(-c3ccccc3)nc2[P+](c2ccccc2)(c2ccccc2)c2ccccc2)cc1 | 222 nM | 674 nM

SMILES | GI50 | TGI
Cc1cn(-c2cc(NC(=O)c3cncc(C#Cc4cnc5ccc(O[C@@H]6CCOC6)nn45)c3)cc(C(F)(F)F)c2)cn1 | 99.8 nM | 432 nM
COc1ccc2c(c1)C1(C(=O)N2)C(C#N)=C(c2ccccc2)Nc2c1c(-c1ccccc1)nn2-c1ccccc1 (centres undefined) | 2930 nM | 9050 nM
CCOC(=O)Nc1nc2c(C)cccc2s1 | 28700 nM | > 100000 nM
NC1=Nc2cc(OCCCN3Cc4ccccc4C3)c(OCC3CC3)cc2C12CCCC2 | 1040 nM | 2480 nM
Cc1cc2cn3c4cccnc4[nH]c(=O)c3c2cc1C | 1390 nM | 2830 nM
Nc1ncnc2c1cnn2Cc1ccc(Cl)cc1 | 44700 nM | > 100000 nM
COc1cc(OC)c(C(=O)/C=C/c2cccc(OC(C)=O)c2)cc1CC=C(C)C | 1890 nM | 9720 nM
CC(C)Nc1ncc2cc(Oc3ccc(F)cc3F)c(=O)n(C)c2n1 | > 23000 nM | > 25000 nM
C=C1C(=O)O[C@H]2[C@H]1CC/C(COC(=O)c1ccccc1)=C\CC[C@@]1(C)O[C@@H]21 | 464 nM | 2590 nM
COc1ccccc1/C=C/C(=O)/C=C/c1ccccc1OC | 1270 nM | 2670 nM
C[C@H](N)C(=O)N1C[C@H](CCCB(O)O)[C@](N)(C(=O)O)C1 | > 100000 nM | > 100000 nM
Cc1[nH]nc2c1N=C(c1ccccc1Cl)c1cc([N+](=O)[O-])ccc1N2 | 242 nM | > 16800 nM
C=C1C(=O)O[C@H]2[C@H]1CC/C(Cn1cc(-c3cc(C)c(C)cc3C)nn1)=C\CC[C@@]1(C)O[C@@H]21 | 530 nM | 2060 nM
O=C(COc1cccc(/C=C2\CSc3ccccc3C2=O)c1)c1ccc(Cl)cc1 | 1500 nM | 3450 nM
OCc1ccc(N(CCN2CCCC2)Cc2ccc(F)cc2)cc1Cl | 1200 nM | 3280 nM
CCOC(=O)c1cc(C(=O)c2cc(OC)c(OC)c(OC)c2)n2ccccc12 | 93.9 nM | 89600 nM

— PubChem BioAssay (NCI)
